Assay results taken from patent publication US12139471B2, “NLRP3 inflammasome inhibitors” (Novartis AG, priority 2019, dated 2024).
pIC50: −log10 of the molar value.

Target: T1, NLRP3 inflammasome (Homo sapiens, UniProt Q96P20)
T1 construct: host or cells: THP-1 cells, PMA-differentiated
Test: IL-1β secretion assay (nigericin-activated, PMA-differentiated THP-1 cells, HTRF)
Assay type: cell-based
Details: PMA-differentiated THP-1 cells; compound 1 hour, then 15 μM nigericin, 3 hours; IL-1β by HTRF; read-out: IL-1β IC50
Procedure: 10 μL supernatant was removed, and IL-1β levels were monitored using an HTRF assay (CisBio, #62IL1PEC) according to manufacturers' instructions. Viability and pyroptosis was monitored with the addition of PrestoBlue cell viability reagent (Life Technologies, #A13261) directly to the cell culture plate.
IC50 values were calculated from the plot of percentage of inhibition versus the inhibitor concentration by a logistics fit according to: y=A2+(A1−A2)/(1+(x/IC50)^p) where y is the %-inhibition at the inhibitor concentration, x. A1 is the lowest inhibition value, i.e. 0%, and A2 the maximum inhibition value, i.e. 100%. The exponent, p, is the Hill coefficient. The curve fitting was conducted with an internally developed software suite.
NLRP3-dependent IL-1β secretion was stimulated in PMA-differentiated THP-1 cells by the addition of nigericin, and cytokines were measured in the […] after 3 hours. As discussed above, activation of the NLRP3 inflammasome requires both an NF-kB-dependent priming step and the addition of a NLRP3 activator.

T1 sequence (Q96P20 whole entry): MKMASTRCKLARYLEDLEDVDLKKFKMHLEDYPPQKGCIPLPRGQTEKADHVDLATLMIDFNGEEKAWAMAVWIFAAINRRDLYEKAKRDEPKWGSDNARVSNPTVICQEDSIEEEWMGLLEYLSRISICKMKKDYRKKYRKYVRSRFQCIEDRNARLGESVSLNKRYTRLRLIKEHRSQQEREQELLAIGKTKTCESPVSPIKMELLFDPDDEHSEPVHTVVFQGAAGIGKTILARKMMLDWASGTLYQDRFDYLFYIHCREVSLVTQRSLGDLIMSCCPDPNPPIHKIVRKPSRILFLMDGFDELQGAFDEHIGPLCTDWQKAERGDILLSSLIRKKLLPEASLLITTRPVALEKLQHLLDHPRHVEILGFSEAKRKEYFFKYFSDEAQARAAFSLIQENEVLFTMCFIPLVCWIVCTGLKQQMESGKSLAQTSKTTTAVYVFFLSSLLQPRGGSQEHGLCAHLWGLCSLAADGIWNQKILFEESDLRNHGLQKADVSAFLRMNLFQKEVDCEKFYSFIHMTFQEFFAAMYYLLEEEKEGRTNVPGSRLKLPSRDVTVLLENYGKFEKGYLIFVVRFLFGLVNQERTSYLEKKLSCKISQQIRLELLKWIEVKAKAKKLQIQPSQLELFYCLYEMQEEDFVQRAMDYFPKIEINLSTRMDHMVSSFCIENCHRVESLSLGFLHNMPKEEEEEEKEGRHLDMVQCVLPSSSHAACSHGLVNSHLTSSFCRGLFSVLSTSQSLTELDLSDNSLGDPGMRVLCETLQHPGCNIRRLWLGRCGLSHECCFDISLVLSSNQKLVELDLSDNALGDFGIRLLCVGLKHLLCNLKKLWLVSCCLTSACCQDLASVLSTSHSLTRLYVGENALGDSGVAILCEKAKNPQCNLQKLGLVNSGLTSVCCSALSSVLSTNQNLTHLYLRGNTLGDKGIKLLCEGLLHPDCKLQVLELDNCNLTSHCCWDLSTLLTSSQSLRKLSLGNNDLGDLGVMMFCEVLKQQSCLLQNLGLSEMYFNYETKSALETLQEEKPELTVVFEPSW

Molecule | pIC50
Cc1cc(N[C@H]2C[C@@](C)(O)C2)nnc1-c1ccc(OC(F)(F)F)cc1O [Ex 81, 2-(6-(((cis)-3-Hydroxy-3-methylcyclobutyl)amino)-4-methylpyridazin-3-yl)-5-(trifluoromethoxy)phenol] | 6.89
Cc1cc(C(F)(F)F)cc(O)c1-c1ccc(NCC2(O)CCCC2)nn1 [Ex 98, 2-(6-(((1-Hydroxycyclopentyl)methyl)amino)pyridazin-3-yl)-3-methyl-5-(trifluoromethyl)phenol] | 6.94
Cc1cc(-c2c(C)cc(C(F)(F)F)cc2O)nnc1NC1CCC(=O)N(C)C1 (stereo not shown) [Ex 99, 5-((6-(2-Hydroxy-6-methyl-4-(trifluoromethyl)phenyl)-4-methylpyridazin-3-yl)amino)-1-methylpiperidin-2-one] | 7.12
Cc1cc(-c2c(C)cc(C(F)(F)F)cc2O)nnc1N[C@@H]1CCCN(C)C1=O [Ex 102, (R)-3-((6-(2-Hydroxy-6-methyl-4-(trifluoromethyl)phenyl)-4-methylpyridazin-3-yl)amino)-1-methylpiperidin-2-one] | 7.31
Cc1cc(C)c(-c2ccc(NCCc3ccc(S(N)(=O)=O)cc3)nn2)c(O)c1 [Ex 103, 4-(2-((6-(2-Hydroxy-4,6-dimethylphenyl)pyridazin-3-yl)amino)ethyl)benzenesulfonamide] | 6.87
(3R)-3-((6-(2-Hydroxy-6-methyl-4-(trifluoromethyl)phenyl)-4-methylpyridazin-3-ylamino)-1-methylpiperidine 1-oxide TFA-salt [Ex 104] | 7.23

Test system: NF-kB-dependent TNF-α secretion
Test: TNF-α secretion assay (counter screen, THP-1 cells, HTRF)
Assay type: cell-based
Details: undifferentiated THP-1 cells, Pam3CSK4-stimulated, 3 hours, TNF-α by HTRF
Procedure: Monocytic THP-1 cells were maintained according to providers' instructions in RPMI media as described above. […] Experimental compounds were prepared and added as described above. TNF-α secretion was triggered by the addition of either 1 μg/mL LPS (Sigma, #L4391) or 100 ng/mL Pam3CSK4 (Invivogen, #tlri-pms) depending on the experiment, and cells were incubated for 3 hours. 10 μL supernatant was removed, and TNF-α levels were monitored using an HTRF assay (CisBio, #62TNFPEC) according to manufacturers' instructions. Viability was monitored as described above.

Molecule | pIC50
(3R)-3-((6-(2-Hydroxy-6-methyl-4-(trifluoromethyl)phenyl)-4-methylpyridazin-3-ylamino)-1-methylpiperidine 1-oxide TFA-salt [Ex 104] | < 4.00
